We go through 21 compounds from publication PMC6736568, “Discovery of Novel Anti-cryptosporidial Activities From Natural Products by in vitro High-Throughput Phenotypic Screening” (Frontiers in Microbiology, 2019).

Molecules are shown by their SMILES. Where a name gives a salt, the structure may show the parent alone. Read-outs that look alike come from different tables or passages of the source.

One series has as its system Cryptosporidium parvum. As to the kind of experiment: qRT-PCR assay of the growth of C. parvum in vitro in HCT-8 host cells (primary and secondary screening, EC50). The class given is cell-based. The note with it: Cryptosporidium parvum, HCT-8; for inhibition at 10 µM: primary screening at 10 uM, read-out: Inhibition (%); for inhibition at 3.3 µM: secondary screening at 3.3 uM, read-out: % Inhibition (3.3 uM).

A short description of the next series: in vitro. The note with it: for cytotoxicity at 41 h, 10 µM: human.
Where [1] appears, read: primary screening at 10 uM, treated vs control.

With `NC(=O)c1cccnc1` [NIACINAMIDE], the inhibition at 10 µM in the series on Cryptosporidium parvum is -9.59%. Further, in the series on HCT-8 host cells (Hs18S) (human, 41 h, 10 μM), the “Hs18S ΔCT” value is reported as -0.05. In the series “in vitro”, the cytotoxicity at 41 h, 10 µM was -3.6%.

Regarding `O=C(O)c1cccnc1` [NIACIN], the inhibition at 10 µM with Cryptosporidium parvum is -6.7%. Besides, the “Hs18S ΔCT” value in the series on HCT-8 host cells (Hs18S) (human, 41 h, 10 μM) worked out at 0.08. Further, the cytotoxicity at 41 h, 10 µM in the series “in vitro” is 5.3%.

Consider `COc1ccc(-c2cc(=O)c3c(OC)c(OC)c(OC)c(OC)c3o2)cc1OC` [NOBILETIN], for which, in the series with Cryptosporidium parvum, the inhibition at 10 µM turned out to be 94.6% and the inhibition at 3.3 µM is -25%. Further, the “Hs18S ΔCT” value in the series with HCT-8 host cells (Hs18S) (human, 41 h, 10 μM) was 0.26. Besides, the cytotoxicity at 41 h, 10 µM in the series “in vitro” was 16.2%.

As to `CCCCC[C@H](CC(=O)O)C(=O)O` [NONIC ACID], the inhibition at 10 µM in the series with Cryptosporidium parvum was -17.1%. For the same compound, in the series with HCT-8 host cells (Hs18S) (human, 41 h, 10 μM), the “Hs18S ΔCT” value was 0.06. Besides, in the series “in vitro”, the cytotoxicity at 41 h, 10 µM was 3.9%.

Turning to `Cc1cc(O)c(C=O)c2c1C(=O)Oc1c(C)c(O)c3c(c1O2)C(O)OC3=O` (stereo not shown) [NORSTICTIC ACID], the inhibition at 10 µM with Cryptosporidium parvum was -20.8%. Moreover, the “Hs18S ΔCT” value with HCT-8 host cells (Hs18S) (human, 41 h, 10 μM) is on record as -0.18. Also, the cytotoxicity at 41 h, 10 µM in “in vitro” is -13.4%.

Take `COc1ccc2c(c1OC)C(=O)O[C@@H]2[C@H]1c2c(cc3c(c2OC)OCO3)CCN1C` [NOSCAPINE HYDROCHLORIDE]: the inhibition at 10 µM in the series with Cryptosporidium parvum was -51.6%. Also, the “Hs18S ΔCT” value with HCT-8 host cells (Hs18S) (human, 41 h, 10 μM) was found to be 0.30. Further, the cytotoxicity at 41 h, 10 µM in the series “in vitro” was 18.9%.

As for `CO[C@@H]1[C@@H](OC(N)=O)[C@@H](O)[C@H](Oc2ccc3c(O)c(NC(=O)c4ccc(O)c(CC=C(C)C)c4)c(=O)oc3c2C)OC1(C)C` [NOVOBIOCIN SODIUM], the inhibition at 10 µM in the series on Cryptosporidium parvum is -13.6%. In the series with HCT-8 host cells (Hs18S) (human, 41 h, 10 μM), the “Hs18S ΔCT” value is 0.10. For the same compound, in “in vitro”, the cytotoxicity at 41 h, 10 µM is 6.5%.

For the compound `C=C(C)[C@H]1COc2cc3oc(=O)ccc3cc2O1` [OBLIQUIN], in the series with Cryptosporidium parvum, the inhibition at 10 µM was determined as 1.63%. In addition, the “Hs18S ΔCT” value in the series on HCT-8 host cells (Hs18S) (setting [1]) is -0.33. Besides, in the series “in vitro”, the cytotoxicity at 10 µM was -25.7%.

In the case of `COC1=CC(=O)C(O)=C/C1=C\C=C\c1ccccc1` [OBTUSAQUINONE], in the series with Cryptosporidium parvum, the inhibition at 10 µM worked out at 87.1% and the inhibition at 3.3 µM is -92%. In addition, in the series with HCT-8 host cells (Hs18S) (human, 41 h, 10 μM), the “Hs18S ΔCT” value is 0.84. The cytotoxicity at 41 h, 10 µM in the series “in vitro” worked out at 44.3%.

Consider `NCC(O)c1ccc(O)cc1` (stereo not shown) [OCTOPAMINE HYDROCHLORIDE], for which, in the series on Cryptosporidium parvum, the inhibition at 10 µM stood at 85.1% and the inhibition at 3.3 µM was -12%. For the same compound, in the series on HCT-8 host cells (Hs18S) (human, 41 h, 10 μM), the “Hs18S ΔCT” value is listed as -0.21. The cytotoxicity at 41 h, 10 µM in the series “in vitro” was -15.8%.

As to `CO[C@H]1C[C@H](O[C@H]2[C@H](C)[C@@H](O[C@@H]3O[C@H](C)C[C@H](N(C)C)[C@H]3O)[C@@H](C)C[C@@]3(CO3)C(=O)[C@H](C)[C@@H](O)[C@@H](C)[C@@H](C)OC(=O)[C@@H]2C)O[C@@H](C)[C@@H]1O` [OLEANDOMYCIN PHOSPHATE], the inhibition at 10 µM in the series on Cryptosporidium parvum is 17.6%. Also, in the series with HCT-8 host cells (Hs18S) (human, 41 h, 10 μM), the “Hs18S ΔCT” value came to 3.02. In “in vitro”, the cytotoxicity at 41 h, 10 µM turned out to be 87.6%.

Consider `COc1ccc(CC(=O)c2ccc(O)cc2O)cc1` [ONONETIN], for which, in the series with Cryptosporidium parvum, the inhibition at 10 µM turned out to be 8.27%. Further, the “Hs18S ΔCT” value with HCT-8 host cells (Hs18S) (human, 41 h, 10 μM) is on record as -0.18. Besides, in “in vitro”, the cytotoxicity at 41 h, 10 µM was -12.9%.

Turning to `O=C(O)c1cc(=O)[nH]c(=O)[nH]1` [OROTIC ACID], the inhibition at 10 µM with Cryptosporidium parvum came out at 8.85%. In the series with HCT-8 host cells (Hs18S) (human, 41 h, 10 μM), the “Hs18S ΔCT” value is on record as -0.39. In addition, in the series “in vitro”, the cytotoxicity at 41 h, 10 µM was -31.1%.

Consider `CCOC(=O)c1c(C)cc(O)cc1O` [ORSELLINIC ACID, ETHYL ESTER], for which the inhibition at 10 µM with Cryptosporidium parvum was 23.7%. Moreover, the “Hs18S ΔCT” value with HCT-8 host cells (Hs18S) (human, 41 h, 10 μM) is listed as -0.12. In addition, the cytotoxicity at 41 h, 10 µM in “in vitro” was -8.3%.

Take `Cc1cc(O)cc(O)c1C(=O)O` [ORSELLINIC ACID]: the inhibition at 10 µM in the series with Cryptosporidium parvum is 37.5%. Moreover, the “Hs18S ΔCT” value in the series on HCT-8 host cells (Hs18S) (setting [1]) is on record as -0.25. The cytotoxicity at 41 h, 10 µM in “in vitro” was -19.3%.

On to `CC(C)=CCc1c2c(c3occ(-c4ccc(O)cc4)c(=O)c3c1O)C=CC(C)(C)O2` [OSAJIN], for which the inhibition at 10 µM in the series with Cryptosporidium parvum was -1.77%. The “Hs18S ΔCT” value with HCT-8 host cells (Hs18S) (human, 41 h, 10 μM) is listed as -1.06. For the same compound, in the series “in vitro”, the cytotoxicity at 41 h, 10 µM is -108%.

In the case of `CC(=O)O[C@H]1C(=O)[C@@]2(C)[C@H]([C@H](OC(=O)c3ccccc3)[C@]3(O)C[C@H](OC(=O)[C@H](O)[C@@H](NC(=O)c4ccccc4)c4ccccc4)C(C)=C1C3(C)C)[C@]1(OC(C)=O)CO[C@@H]1C[C@@H]2O` [PACLITAXEL], in the series with Cryptosporidium parvum, the inhibition at 10 µM came out at 86.6% and the inhibition at 3.3 µM was found to be 93%. The “Hs18S ΔCT” value with HCT-8 host cells (Hs18S) (human, 41 h, 10 μM) is 0.65. Moreover, the cytotoxicity at 41 h, 10 µM in the series “in vitro” was 36.1%.

`COc1ccc(C(C)=O)c(O)c1` [PAEONOL]: the inhibition at 10 µM in the series with Cryptosporidium parvum was -10.4%. Further, the “Hs18S ΔCT” value with HCT-8 host cells (Hs18S) (human, 41 h, 10 μM) came to 0.01. In addition, the cytotoxicity at 41 h, 10 µM in the series “in vitro” came to 0.8%.

Turning to `COc1cc2c(cc1OC)-c1cc3ccc(OC)c(OC)c3c[n+]1CC2` [PALMATINE CHLORIDE], the inhibition at 10 µM in the series on Cryptosporidium parvum was 9.29%. In addition, the “Hs18S ΔCT” value in the series on HCT-8 host cells (Hs18S) (human, 41 h, 10 μM) is given as -0.09. Also, the cytotoxicity at 41 h, 10 µM in “in vitro” is -6.1%.

As to `CCCCCCCCCCCCCCCC(=O)NCCO` [PALMIDROL], the inhibition at 10 µM with Cryptosporidium parvum was -7.35%. Also, in the series on HCT-8 host cells (Hs18S) (human, 41 h, 10 μM), the “Hs18S ΔCT” value came out at 0.05. Moreover, in “in vitro”, the cytotoxicity at 41 h, 10 µM was 3.5%.

`COc1ccc(Cc2nccc3cc(OC)c(OC)cc23)cc1OC` [PAPAVERINE HYDROCHLORIDE]: the inhibition at 10 µM in the series on Cryptosporidium parvum was 56.2%. In addition, the “Hs18S ΔCT” value with HCT-8 host cells (Hs18S) is listed as 0.57. Besides, the cytotoxicity at 41 h, 10 µM in “in vitro” was found to be 32.7%.
